Experimental data as given in patent publication US9889115B2, “Fitness assay and associated methods” (priority 1998, dated 2018).
Like-named read-outs stand apart in the source and are kept apart here.

What was measured:
Format in all cases: cell-based
[1] = system: multidrug-resistant HIV-1 clinical isolate, patient 10; assay: microbe, parasite or virus in culture; conditions: Patient Isolate 10
Procedure: (§1) The mutant multidrug-resistant HIV-1 strains corresponding to each patient, numbered 9-35, were genetically analyzed in terms of the nucleic acid sequences of the protease (PR) and a portion of the reverse transcriptase (RT) genes from which mutations in these enzymes were determined. The mutations in the protease and reverse transcriptase of the multidrug-resistant viruses isolated from each patient are shown below in Table 9b.

[2] = system: multidrug-resistant HIV-1 clinical isolate, patient 11; assay: microbe, parasite or virus in culture; conditions: Patient Isolate 11
Procedure: as §1

[3] = system: multidrug-resistant HIV-1 clinical isolate, patient 12; assay: microbe, parasite or virus in culture; conditions: Patient Isolate 12
Procedure: as §1

[4] = system: multidrug-resistant HIV-1 clinical isolate, patient 13; assay: microbe, parasite or virus in culture; conditions: Patient Isolate 13
Procedure: as §1

[5] = system: multidrug-resistant HIV-1 clinical isolate, patient 14; assay: microbe, parasite or virus in culture; conditions: Patient Isolate 14
Procedure: as §1

[6] = system: multidrug-resistant HIV-1 clinical isolate, patient 15; assay: microbe, parasite or virus in culture; conditions: Patient Isolate 15
Procedure: as §1

[7] = system: multidrug-resistant HIV-1 clinical isolate, patient 16; assay: microbe, parasite or virus in culture; conditions: Patient Isolate 16
Procedure: as §1

[8] = system: multidrug-resistant HIV-1 clinical isolate, patient 17; assay: microbe, parasite or virus in culture; conditions: Patient Isolate 17
Procedure: as §1

[9] = system: multidrug-resistant HIV-1 clinical isolate, patient 18; assay: microbe, parasite or virus in culture; conditions: Patient Isolate 18
Procedure: as §1

[10] = system: multidrug-resistant HIV-1 clinical isolate, patient 19; assay: microbe, parasite or virus in culture; conditions: Patient Isolate 19
Procedure: as §1

[11] = system: multidrug-resistant HIV-1 clinical isolate, patient 20; assay: microbe, parasite or virus in culture; conditions: Patient Isolate 20
Procedure: as §1

[12] = system: multidrug-resistant HIV-1 clinical isolate, patient 21; assay: microbe, parasite or virus in culture; conditions: Patient Isolate 21
Procedure: as §1

[13] = system: multidrug-resistant HIV-1 clinical isolate, patient 23; assay: microbe, parasite or virus in culture; conditions: Patient Isolate 23
Procedure: as §1

[14] = system: multidrug-resistant HIV-1 clinical isolate, patient 27; assay: microbe, parasite or virus in culture; conditions: Patient Isolate 27
Procedure: as §1

[15] = system: multidrug-resistant HIV-1 clinical isolate, patient 28; assay: microbe, parasite or virus in culture; conditions: Patient Isolate 28
Procedure: as §1

[16] = system: multidrug-resistant HIV-1 clinical isolate, patient 29; assay: microbe, parasite or virus in culture; conditions: Patient Isolate 29
Procedure: as §1

[17] = system: multidrug-resistant HIV-1 clinical isolate, patient 30; assay: microbe, parasite or virus in culture; conditions: Patient Isolate 30
Procedure: as §1

[18] = system: multidrug-resistant HIV-1 clinical isolate, patient 32; assay: microbe, parasite or virus in culture; conditions: Patient Isolate 32
Procedure: as §1

[19] = system: multidrug-resistant HIV-1 clinical isolate, patient 33; assay: microbe, parasite or virus in culture; conditions: Patient Isolate 33
Procedure: as §1

[20] = system: multidrug-resistant HIV-1 clinical isolate, patient 35; assay: microbe, parasite or virus in culture; conditions: Patient Isolate 35
Procedure: as §1

[21] = system: multidrug-resistant HIV-1 clinical isolate, patient 9; assay: microbe, parasite or virus in culture; conditions: Patient Isolate 9
Procedure: as §1

[22] = system: multidrug-resistant HIV-1 clinical isolate, patient 22; assay: IC50 against multidrug-resistant clinical isolates (Table 9a)
Procedure: as §1

wild-type HIV-1 (WT) = assay: IC50 against wild-type HIV-1 (Table 9a); conditions: (WT)
[23] = system: multidrug-resistant HIV-1 clinical isolate, patient 31; assay: microbe, parasite or virus in culture; conditions: Patient Isolate 31
Procedure: as §1

[24] = system: multidrug-resistant HIV-1 clinical isolate, patient 34; assay: IC50 against multidrug-resistant clinical isolates (Table 9a)
Procedure: as §1

[25] = Patient Isolate 22, read-out: IC50
[26] = Patient Isolate 34, read-out: IC50

Cc1cn([C@H]2C[C@H](N=[N+]=[N-])[C@@H](CO)O2)c(=O)[nH]c1=O [AZT, 3′-azido-2′,3′-dideoxythymidine]
IC50 [1]: 20 nM | IC50 [2]: 110 nM | IC50 [3]: 70 nM | IC50 [4]: 170 nM | IC50 [5]: 640 nM | IC50 [6]: 200 nM | IC50 [7]: 970 nM | IC50 [8]: > 1250 nM | IC50 [9]: 550 nM | IC50 [10]: > 1250 nM | IC50 [11]: 1250 nM | IC50 [12]: > 1250 nM | IC50 [13]: 190 nM | IC50 [14]: 30 nM | IC50 [15]: > 1250 nM | IC50 [16]: > 1250 nM | IC50 [17]: 160 nM | IC50 [18]: 320 nM | IC50 [19]: 510 nM | IC50 [20]: 880 nM | IC50 [21]: 10 nM | IC50 [22, 25]: 1020 nM | IC50 (wild-type HIV-1 (WT)): 22 nM

Nc1ccn([C@@H]2CS[C@H](CO)O2)c(=O)n1 [Compound 3TC]
IC50 (wild-type HIV-1 (WT)): 264 nM

Cc1cn([C@H]2C=C[C@@H](CO)O2)c(=O)[nH]c1=O [Compound D4T]
IC50 [1]: 1290 nM | IC50 [2]: 3100 nM | IC50 [3]: 1230 nM | IC50 [4]: 780 nM | IC50 [5]: 1100 nM | IC50 [6]: 1100 nM | IC50 [7]: 1810 nM | IC50 [8]: 4280 nM | IC50 [9]: 2080 nM | IC50 [10]: 35600 nM | IC50 [11]: 22500 nM | IC50 [12]: 3280 nM | IC50 [13]: 1000 nM | IC50 [14]: 4000 nM | IC50 [15]: 5440 nM | IC50 [16]: 5290 nM | IC50 [17]: 2520 nM | IC50 [23]: 3110 nM | IC50 [18]: 2410 nM | IC50 [19]: 2730 nM | IC50 [20]: 18100 nM | IC50 [21]: 910 nM | IC50 [22, 25]: 4680 nM | IC50 [24, 26]: 7710 nM | IC50 (wild-type HIV-1 (WT)): 1060 nM

Nc1ccn([C@H]2CC[C@@H](CO)O2)c(=O)n1 [DDC, 2′3′-dideoxycytidine]
IC50 (wild-type HIV-1 (WT)): 243 nM

O=c1[nH]cnc2c1ncn2[C@H]1CC[C@@H](CO)O1 [DDI, 2′3′-dideoxyinosine]
IC50 [1]: 1700 nM | IC50 [2]: 2400 nM | IC50 [3]: 900 nM | IC50 [4]: 500 nM | IC50 [5]: 2400 nM | IC50 [6]: 2200 nM | IC50 [7]: 3500 nM | IC50 [9]: 2200 nM | IC50 [10]: 36600 nM | IC50 [11]: 7100 nM | IC50 [12]: 1000 nM | IC50 [13]: 1800 nM | IC50 [14]: 2600 nM | IC50 [15]: 2800 nM | IC50 [16]: 3800 nM | IC50 [17]: 2800 nM | IC50 [23]: 2600 nM | IC50 [18]: 8400 nM | IC50 [19]: 2000 nM | IC50 [20]: 17000 nM | IC50 [21]: 700 nM | IC50 [22, 25]: 3700 nM | IC50 [24, 26]: 9100 nM | IC50 (wild-type HIV-1 (WT)): 895 nM

Cc1c(O)cccc1C(=O)N[C@@H](CSc1ccccc1)[C@H](O)CN1C[C@H]2CCCC[C@H]2C[C@H]1C(=O)NC(C)(C)C [Nel., Nelfinavir]
IC50 ([1]; Human immunodeficiency virus 1): > 1250 nM | IC50 ([2]; Human immunodeficiency virus 1): 30 nM | IC50 ([3]; Human immunodeficiency virus 1): > 1250 nM | IC50 ([4]; Human immunodeficiency virus 1): 470 nM | IC50 ([5]; Human immunodeficiency virus 1): 10 nM | IC50 ([6]; Human immunodeficiency virus 1): 470 nM | IC50 ([7]; Human immunodeficiency virus 1): 860 nM | IC50 ([8]; Human immunodeficiency virus 1): 520 nM | IC50 ([9]; Human immunodeficiency virus 1): 600 nM | IC50 ([10]; Human immunodeficiency virus 1): 500 nM | IC50 ([11]; Human immunodeficiency virus 1): 580 nM | IC50 ([12]; Human immunodeficiency virus 1): > 1250 nM | IC50 ([13]; Human immunodeficiency virus 1): 280 nM | IC50 ([14]; Human immunodeficiency virus 1): > 1250 nM | IC50 ([15]; Human immunodeficiency virus 1): > 1250 nM | IC50 ([16]; Human immunodeficiency virus 1): 670 nM | IC50 ([17]; Human immunodeficiency virus 1): 520 nM | IC50 ([23]; Human immunodeficiency virus 1): 240 nM | IC50 ([18]; Human immunodeficiency virus 1): 220 nM | IC50 ([19]; Human immunodeficiency virus 1): 350 nM | IC50 ([20]; Human immunodeficiency virus 1): 480 nM | IC50 ([21]; Human immunodeficiency virus 1): 980 nM | IC50 ([22]; Human immunodeficiency virus 1): 100 nM | IC50 ([24]; Human immunodeficiency virus 1): 260 nM | IC50 (wild-type HIV-1 (WT); Human immunodeficiency virus 1): 31 nM
